Calls of active or inactive are those of the source. No cut-off for these calls is given here. Where only a bound is given, the exact number is not on record here.

This note sets out measurements from ChEMBL document CHEMBL1142340 (Bioorg Med Chem Lett, 2008).

For series [1], the system named is A549. The series can be described thus: Antiproliferative activity against human A549 cells after 3 days. It counts as functional, cell-based. The conditions noted are these: A549, 72 h.
The target in another series is Histone deacetylase. The experiment in a line: Inhibition of human HDAC in HeLa nuclear extracts.
The target in series [2] is Histone deacetylase (Homo sapiens) (UniProt Q13547+O15379+Q9UBN7+Q92769+Q9UQL6+Q8WUI4+Q9BY41+Q96DB2+P56524+Q9UKV0+Q969S8). The series can be described thus: Inhibition of human HDAC in A549 cells assessed as increase in histone-H4 acetylation at 150 uM after 24 hrs by Western blot. It counts as cell-based.
Series [3] has as its system A549. The experiment in a line: Antiproliferative activity against human A549 cells at 1 mM after 3 days. The format is functional. The conditions noted are these: A549, 72 h.
The nature of series [4]: Dissociation constant, pKa of the compound. It counts as physicochemical.

As for `Br.CS(=O)(=O)SCCN`, the figures for the IC50 with A549 [1] and against Histone deacetylase were 154 µM and 198 µM, respectively.
Take `CCCC(CCC)C(=O)OCCSS(C)(=O)=O`: the values for the IC50 in the series on A549 [1] and against Histone deacetylase were 154 µM and 9.6 µM, respectively.
The corresponding values for `CCCC(CCC)C(=O)Oc1ccc(-c2cc(=S)ss2)cc1` are 89 µM and 56.4 µM.
`CCCC(CCC)C(=O)O` [VALPROIC ACID]: in series [2], the outcome was Active. Besides, the IC50 with A549 [1] was greater than 1000 µM. At 1000 µM the inhibition with A549 [3] was 24%.
`CCCC(CCC)C(=O)NCCSS(C)(=O)=O` returned a half-inhibitory concentration (IC50) against Histone deacetylase of 17.5 µM.
In the case of `Oc1ccc(-c2cc(=S)ss2)cc1`, the IC50 was 66 µM in the series on A549 [1] and 0.45 µM at Histone deacetylase. In series [4], this molecule registered a pKa of 7.86.
On to `CS(=O)(=O)SCCO`, for which the concentration for half-maximal inhibition (IC50) in the series on A549 [1] turned out to be 161 µM; at Histone deacetylase, 102 µM.
